Measured values published in ChEMBL document CHEMBL5465560, “Selectivity Literature for EUbOPEN Chemogenomic Library” (2024).
Values belong to the compound of their own block, whether it stands above or below them.

Experiments:
[1] = target: T1, Bone morphogenetic protein receptor type-2 (Homo sapiens) (UniProt Q13873); experiment: Selectivity interaction (KinomeScan (DiscoverX)) EUB0000607a BMPR2; conditions: at 10 µM
T1 sequence (whole entry): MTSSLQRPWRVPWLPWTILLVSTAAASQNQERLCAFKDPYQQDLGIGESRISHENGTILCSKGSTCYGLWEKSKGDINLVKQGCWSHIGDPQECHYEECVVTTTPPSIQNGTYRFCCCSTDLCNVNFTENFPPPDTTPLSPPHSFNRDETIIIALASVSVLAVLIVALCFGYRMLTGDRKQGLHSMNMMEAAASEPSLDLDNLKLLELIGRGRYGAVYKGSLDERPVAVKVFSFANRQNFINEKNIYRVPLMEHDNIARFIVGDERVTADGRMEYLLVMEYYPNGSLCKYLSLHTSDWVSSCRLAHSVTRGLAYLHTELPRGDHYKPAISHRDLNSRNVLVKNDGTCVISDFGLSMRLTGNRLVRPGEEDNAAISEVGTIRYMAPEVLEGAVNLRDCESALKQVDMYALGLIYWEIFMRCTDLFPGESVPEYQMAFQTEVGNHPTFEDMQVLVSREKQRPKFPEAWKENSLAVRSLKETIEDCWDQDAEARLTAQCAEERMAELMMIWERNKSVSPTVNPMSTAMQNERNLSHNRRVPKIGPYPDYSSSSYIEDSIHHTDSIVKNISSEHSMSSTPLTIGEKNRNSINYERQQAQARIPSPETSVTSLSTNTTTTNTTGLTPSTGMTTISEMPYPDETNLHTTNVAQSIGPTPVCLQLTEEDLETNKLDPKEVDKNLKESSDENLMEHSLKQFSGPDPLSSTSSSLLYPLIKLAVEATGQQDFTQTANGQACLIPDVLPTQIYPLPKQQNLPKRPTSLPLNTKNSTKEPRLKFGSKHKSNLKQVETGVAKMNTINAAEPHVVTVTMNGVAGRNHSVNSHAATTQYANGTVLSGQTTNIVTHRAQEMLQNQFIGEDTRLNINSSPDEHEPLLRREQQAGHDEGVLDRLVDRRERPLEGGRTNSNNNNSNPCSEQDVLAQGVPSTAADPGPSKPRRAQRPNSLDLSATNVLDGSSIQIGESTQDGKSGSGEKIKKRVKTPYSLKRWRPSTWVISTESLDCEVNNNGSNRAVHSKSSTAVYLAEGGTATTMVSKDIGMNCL

[2] = target: Serine/threonine-protein kinase VRK2 (Homo sapiens) (UniProt Q86Y07); experiment: Selectivity interaction (KinomeScan (DiscoverX)) EUB0000607a VRK2; conditions: at 10 µM
[3] = test system: Tyrosine-protein kinase ABL1 (Homo sapiens), P00519 [Y253F]; conditions: at 10 µM
Activated CDC42 kinase 1 = Activated CDC42 kinase 1 (Homo sapiens, UniProt Q07912); experiment: Selectivity interaction (ActivX KiNativ screen (kinase selectivity in THP-1 cell lysates)) EUB0000639a TNK2; type: subcellular; conditions: lysate
Ephrin type-A receptor 4 = Ephrin type-A receptor 4 (Homo sapiens, UniProt P54764); experiment: Selectivity interaction (ProQinase) EUB0000171b EPHA4
[4] = target: ALK tyrosine kinase receptor (Homo sapiens, UniProt Q9UM73); experiment: Selectivity interaction (KinomeScan (DiscoverX)) EUB0000595a ALK; conditions: at 10 µM
[5] = target: T2, Muscle, skeletal receptor tyrosine-protein kinase (Homo sapiens) (UniProt O15146); experiment: Selectivity interaction (KinomeScan (DiscoverX)) EUB0000595a MUSK; conditions: at 10 µM
T2 sequence (whole entry): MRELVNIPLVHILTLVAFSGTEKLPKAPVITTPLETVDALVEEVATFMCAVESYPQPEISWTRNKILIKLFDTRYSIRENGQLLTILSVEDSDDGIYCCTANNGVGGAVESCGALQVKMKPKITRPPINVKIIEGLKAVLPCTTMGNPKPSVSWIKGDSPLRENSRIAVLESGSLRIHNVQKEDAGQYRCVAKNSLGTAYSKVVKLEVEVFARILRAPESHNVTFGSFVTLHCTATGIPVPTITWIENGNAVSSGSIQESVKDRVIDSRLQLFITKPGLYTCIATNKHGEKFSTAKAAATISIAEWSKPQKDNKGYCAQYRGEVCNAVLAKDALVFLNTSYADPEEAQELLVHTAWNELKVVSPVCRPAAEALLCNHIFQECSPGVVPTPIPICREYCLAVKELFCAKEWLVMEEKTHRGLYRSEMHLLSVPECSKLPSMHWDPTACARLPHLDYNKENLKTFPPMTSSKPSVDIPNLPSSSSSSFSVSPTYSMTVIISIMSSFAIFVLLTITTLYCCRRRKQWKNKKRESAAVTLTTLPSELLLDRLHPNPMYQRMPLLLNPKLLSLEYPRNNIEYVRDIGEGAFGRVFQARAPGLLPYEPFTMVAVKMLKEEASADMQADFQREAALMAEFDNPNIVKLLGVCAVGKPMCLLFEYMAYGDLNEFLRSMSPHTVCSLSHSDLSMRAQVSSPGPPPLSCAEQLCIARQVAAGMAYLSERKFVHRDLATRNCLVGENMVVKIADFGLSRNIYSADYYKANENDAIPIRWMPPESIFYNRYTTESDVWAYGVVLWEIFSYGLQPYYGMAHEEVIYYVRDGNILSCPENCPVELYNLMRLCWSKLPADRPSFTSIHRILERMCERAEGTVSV

[6] = target: Serine/threonine-protein kinase PLK2 (Homo sapiens, UniProt Q9NYY3); experiment: Selectivity interaction (KinomeScan (DiscoverX)) EUB0000655a PLK2; conditions: at 10 µM
[7] = target: T3, Aurora kinase A (Homo sapiens) (UniProt O14965); experiment: Selectivity interaction (Kinase panel (KiNativ target engagement assay in Jurkat cells)) EUB0001635a STK6; type: cell-based; conditions: at 1 µM
T3 sequence (whole entry): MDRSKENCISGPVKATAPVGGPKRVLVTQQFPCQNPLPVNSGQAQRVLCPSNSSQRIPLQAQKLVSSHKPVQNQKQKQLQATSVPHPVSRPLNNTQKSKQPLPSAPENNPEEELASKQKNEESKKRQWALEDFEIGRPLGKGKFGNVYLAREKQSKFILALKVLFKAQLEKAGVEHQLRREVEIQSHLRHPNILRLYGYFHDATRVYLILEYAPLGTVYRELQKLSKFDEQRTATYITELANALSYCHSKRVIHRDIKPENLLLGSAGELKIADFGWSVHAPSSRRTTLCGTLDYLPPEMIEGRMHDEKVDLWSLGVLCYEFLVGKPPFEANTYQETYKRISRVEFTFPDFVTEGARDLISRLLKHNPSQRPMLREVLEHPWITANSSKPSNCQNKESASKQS

[8] = target: Serine/threonine-protein kinase N1 (Homo sapiens, UniProt Q16512); experiment: Selectivity interaction (ActivX KiNativ screen (ex vivo kinase selectivity in human PBMCs)) EUB0001619a PKN1; type: cell-based; conditions: PBMC, at 1 µM
Chain of Serine/threonine-protein kinase N1 (Q16512 2-942 limits assumed): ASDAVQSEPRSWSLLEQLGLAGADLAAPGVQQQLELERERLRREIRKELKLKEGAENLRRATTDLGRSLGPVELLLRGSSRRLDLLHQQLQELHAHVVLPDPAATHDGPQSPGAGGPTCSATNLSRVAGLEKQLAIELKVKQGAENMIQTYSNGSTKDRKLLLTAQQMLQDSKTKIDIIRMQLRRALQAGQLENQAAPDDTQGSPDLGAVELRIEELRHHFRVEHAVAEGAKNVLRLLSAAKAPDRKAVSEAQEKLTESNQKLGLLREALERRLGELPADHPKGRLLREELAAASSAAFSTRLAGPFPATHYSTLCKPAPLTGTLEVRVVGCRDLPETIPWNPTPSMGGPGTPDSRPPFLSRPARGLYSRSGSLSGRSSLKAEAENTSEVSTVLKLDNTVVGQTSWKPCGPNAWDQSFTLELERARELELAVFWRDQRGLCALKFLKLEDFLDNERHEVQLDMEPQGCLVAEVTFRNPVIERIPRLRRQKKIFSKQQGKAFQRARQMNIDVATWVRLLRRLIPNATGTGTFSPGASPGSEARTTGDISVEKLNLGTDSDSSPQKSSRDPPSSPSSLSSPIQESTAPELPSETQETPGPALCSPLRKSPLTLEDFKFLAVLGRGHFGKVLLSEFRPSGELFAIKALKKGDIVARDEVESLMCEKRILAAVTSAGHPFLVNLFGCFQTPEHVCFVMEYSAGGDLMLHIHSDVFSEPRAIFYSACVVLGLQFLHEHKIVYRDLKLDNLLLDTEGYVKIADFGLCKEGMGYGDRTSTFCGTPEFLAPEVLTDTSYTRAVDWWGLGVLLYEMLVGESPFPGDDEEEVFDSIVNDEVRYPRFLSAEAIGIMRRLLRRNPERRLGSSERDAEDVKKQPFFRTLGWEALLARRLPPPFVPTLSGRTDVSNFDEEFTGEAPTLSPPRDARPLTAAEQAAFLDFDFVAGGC

Chain of Activated CDC42 kinase 1 (Q07912 whole entry, looked up): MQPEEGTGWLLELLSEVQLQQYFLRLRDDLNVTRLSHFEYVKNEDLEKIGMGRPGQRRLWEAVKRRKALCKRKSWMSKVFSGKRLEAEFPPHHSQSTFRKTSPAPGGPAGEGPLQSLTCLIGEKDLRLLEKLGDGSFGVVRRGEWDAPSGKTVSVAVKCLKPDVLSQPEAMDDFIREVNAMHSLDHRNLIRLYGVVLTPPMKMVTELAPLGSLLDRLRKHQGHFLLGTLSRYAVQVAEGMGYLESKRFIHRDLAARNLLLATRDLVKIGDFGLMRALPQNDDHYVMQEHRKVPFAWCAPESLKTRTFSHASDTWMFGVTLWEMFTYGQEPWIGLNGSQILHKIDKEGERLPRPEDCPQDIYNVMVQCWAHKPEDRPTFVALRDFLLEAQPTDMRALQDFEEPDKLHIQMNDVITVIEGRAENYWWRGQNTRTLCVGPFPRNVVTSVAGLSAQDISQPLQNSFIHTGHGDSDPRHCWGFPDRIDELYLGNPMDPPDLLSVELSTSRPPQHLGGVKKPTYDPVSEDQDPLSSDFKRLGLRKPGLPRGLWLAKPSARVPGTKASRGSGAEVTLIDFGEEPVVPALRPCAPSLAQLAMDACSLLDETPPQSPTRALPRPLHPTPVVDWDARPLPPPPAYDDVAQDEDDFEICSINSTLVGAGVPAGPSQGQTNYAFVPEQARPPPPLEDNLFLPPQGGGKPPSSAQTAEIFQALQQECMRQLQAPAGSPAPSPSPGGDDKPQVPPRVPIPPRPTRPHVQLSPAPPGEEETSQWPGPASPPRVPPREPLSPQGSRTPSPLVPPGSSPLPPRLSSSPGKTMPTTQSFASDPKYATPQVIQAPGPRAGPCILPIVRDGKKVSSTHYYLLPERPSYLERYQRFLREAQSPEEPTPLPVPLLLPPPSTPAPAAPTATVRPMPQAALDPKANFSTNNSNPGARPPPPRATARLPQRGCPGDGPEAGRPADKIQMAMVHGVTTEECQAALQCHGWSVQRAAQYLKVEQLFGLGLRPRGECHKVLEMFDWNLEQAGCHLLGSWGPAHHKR
Chain of Ephrin type-A receptor 4 (P54764 whole entry): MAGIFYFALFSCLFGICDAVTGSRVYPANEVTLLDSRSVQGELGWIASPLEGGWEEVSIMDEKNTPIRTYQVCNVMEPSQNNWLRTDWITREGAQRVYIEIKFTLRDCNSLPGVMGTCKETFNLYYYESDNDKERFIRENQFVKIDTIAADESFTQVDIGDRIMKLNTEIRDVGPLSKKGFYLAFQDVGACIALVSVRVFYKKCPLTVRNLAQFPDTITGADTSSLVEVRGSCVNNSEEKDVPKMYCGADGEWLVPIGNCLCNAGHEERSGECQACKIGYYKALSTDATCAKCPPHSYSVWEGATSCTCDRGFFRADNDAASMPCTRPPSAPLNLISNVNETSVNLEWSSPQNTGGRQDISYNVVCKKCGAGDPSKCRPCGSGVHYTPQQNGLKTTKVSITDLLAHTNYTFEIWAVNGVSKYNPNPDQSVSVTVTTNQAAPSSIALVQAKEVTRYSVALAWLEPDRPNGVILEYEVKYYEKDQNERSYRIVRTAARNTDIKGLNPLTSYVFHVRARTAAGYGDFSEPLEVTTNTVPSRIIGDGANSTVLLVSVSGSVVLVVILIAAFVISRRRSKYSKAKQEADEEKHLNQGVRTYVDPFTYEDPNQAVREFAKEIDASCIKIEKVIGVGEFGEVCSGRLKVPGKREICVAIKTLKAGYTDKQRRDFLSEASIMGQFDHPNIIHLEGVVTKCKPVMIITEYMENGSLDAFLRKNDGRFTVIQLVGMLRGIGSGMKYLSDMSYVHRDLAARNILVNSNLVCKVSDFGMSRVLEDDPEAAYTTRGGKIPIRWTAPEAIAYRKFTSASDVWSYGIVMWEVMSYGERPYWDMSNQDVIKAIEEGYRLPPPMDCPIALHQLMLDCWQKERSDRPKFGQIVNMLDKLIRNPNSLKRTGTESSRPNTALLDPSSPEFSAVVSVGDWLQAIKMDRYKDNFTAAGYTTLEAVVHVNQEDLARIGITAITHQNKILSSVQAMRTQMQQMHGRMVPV
Chain of Serine/threonine-protein kinase VRK2 (Homo sapiens) (Q86Y07 whole entry): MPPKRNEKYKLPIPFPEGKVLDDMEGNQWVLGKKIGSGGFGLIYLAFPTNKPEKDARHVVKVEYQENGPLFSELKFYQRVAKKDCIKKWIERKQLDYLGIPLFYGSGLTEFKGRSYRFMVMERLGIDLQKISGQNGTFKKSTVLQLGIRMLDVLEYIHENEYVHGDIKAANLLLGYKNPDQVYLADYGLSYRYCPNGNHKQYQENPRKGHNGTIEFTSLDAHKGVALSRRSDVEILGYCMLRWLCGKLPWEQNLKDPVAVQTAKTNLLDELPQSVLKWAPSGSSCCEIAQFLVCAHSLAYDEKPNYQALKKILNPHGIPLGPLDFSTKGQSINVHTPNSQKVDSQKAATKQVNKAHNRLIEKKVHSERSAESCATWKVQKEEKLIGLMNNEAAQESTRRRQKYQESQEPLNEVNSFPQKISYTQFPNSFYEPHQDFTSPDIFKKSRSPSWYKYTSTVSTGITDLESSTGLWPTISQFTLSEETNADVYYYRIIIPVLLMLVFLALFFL
Chain of ALK tyrosine kinase receptor (Q9UM73 19-1620 limits assumed): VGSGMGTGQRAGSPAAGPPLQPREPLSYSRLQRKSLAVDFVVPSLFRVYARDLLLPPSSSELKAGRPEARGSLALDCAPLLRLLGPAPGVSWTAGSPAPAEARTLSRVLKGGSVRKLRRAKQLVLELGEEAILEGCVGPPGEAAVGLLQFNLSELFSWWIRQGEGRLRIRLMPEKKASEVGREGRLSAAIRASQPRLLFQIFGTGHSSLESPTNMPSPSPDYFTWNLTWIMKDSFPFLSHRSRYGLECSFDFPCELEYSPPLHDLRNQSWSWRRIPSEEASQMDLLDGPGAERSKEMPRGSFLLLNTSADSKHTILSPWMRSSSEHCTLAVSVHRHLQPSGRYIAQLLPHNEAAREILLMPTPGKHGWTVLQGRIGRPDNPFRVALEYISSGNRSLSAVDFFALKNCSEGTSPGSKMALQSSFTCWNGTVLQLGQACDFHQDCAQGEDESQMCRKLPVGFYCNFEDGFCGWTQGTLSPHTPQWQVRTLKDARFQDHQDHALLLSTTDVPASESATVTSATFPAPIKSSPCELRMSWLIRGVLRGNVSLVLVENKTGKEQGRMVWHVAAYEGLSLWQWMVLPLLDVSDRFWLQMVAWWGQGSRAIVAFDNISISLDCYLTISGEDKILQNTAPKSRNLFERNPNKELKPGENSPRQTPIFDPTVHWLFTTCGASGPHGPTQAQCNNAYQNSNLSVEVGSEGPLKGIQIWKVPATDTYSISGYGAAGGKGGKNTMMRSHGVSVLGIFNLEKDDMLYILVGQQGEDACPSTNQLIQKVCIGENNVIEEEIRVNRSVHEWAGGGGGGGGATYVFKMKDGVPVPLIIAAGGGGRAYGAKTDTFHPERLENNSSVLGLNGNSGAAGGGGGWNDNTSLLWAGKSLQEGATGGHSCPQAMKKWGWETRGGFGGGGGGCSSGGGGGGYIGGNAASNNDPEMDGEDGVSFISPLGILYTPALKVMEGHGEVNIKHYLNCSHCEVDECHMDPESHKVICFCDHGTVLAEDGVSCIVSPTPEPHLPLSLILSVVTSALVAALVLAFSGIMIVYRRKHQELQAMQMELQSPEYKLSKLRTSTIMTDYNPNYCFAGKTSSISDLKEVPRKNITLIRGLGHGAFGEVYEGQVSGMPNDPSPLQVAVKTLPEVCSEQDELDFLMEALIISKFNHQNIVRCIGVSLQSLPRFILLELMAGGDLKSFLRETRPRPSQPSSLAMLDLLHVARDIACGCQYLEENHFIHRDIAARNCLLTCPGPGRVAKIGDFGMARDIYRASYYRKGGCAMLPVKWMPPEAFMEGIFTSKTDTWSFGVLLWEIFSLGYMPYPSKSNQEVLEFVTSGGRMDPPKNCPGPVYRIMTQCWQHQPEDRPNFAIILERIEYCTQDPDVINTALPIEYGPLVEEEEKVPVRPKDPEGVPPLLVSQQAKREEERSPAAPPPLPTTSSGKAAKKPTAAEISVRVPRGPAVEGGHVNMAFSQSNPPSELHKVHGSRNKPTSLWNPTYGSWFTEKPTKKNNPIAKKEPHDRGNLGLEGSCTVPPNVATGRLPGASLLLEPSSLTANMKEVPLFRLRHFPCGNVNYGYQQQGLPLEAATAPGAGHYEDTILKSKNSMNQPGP

SMILES: CNC(=O)Nc1ccc(-c2nc(N3CC4CCC(C3)O4)c3cnn(C4CCC5(CC4)OCCO5)c3n2)cc1
% of control [1]: 83% | % of control [2]: 100%

% of control [3]: 100%
SMILES: CCN(CC)CCCCNc1ncc2cc(-c3cc(OC)cc(OC)c3)c(NC(=O)NC(C)(C)C)nc2n1

% of inhibition (Activated CDC42 kinase 1; at 0.01 µM): 1.7% | % of inhibition (Activated CDC42 kinase 1; at 0.04 µM): -15.5% | % of inhibition (Activated CDC42 kinase 1; at 0.2 µM): -11.3% | % of inhibition (Activated CDC42 kinase 1; at 1 µM): -19.1% | % of inhibition (Activated CDC42 kinase 1; at 5 µM): -20.6%
SMILES: CC[C@@H]1[C@H](F)C(=O)N[C@@H]1COc1nccc2cc(C(N)=O)c(OC)cc12 [ZIMLOVISERTIB]

% of control (Ephrin type-A receptor 4; at 1 µM): 93% | % of control (Ephrin type-A receptor 4; at 5 µM): 78%
SMILES: C=CC(=O)Nc1cccc(C(=O)Nc2ccc(Nc3cc(-c4[nH]c(SC)nc4C)ccn3)cc2)c1

SMILES: COCC(=O)NC/C=C/c1ccc2ncnc(Nc3ccc(Oc4ccc(C)nc4)c(C)c3)c2c1 [CP-724714]
% of control [4]: 100% | % of control [5]: 100%

SMILES: CN(C)CCOc1ccc(-c2nc(-c3ccncc3)c(-c3ccc4c(c3)CC/C4=N\O)[nH]2)cc1
% of control [6]: 92%

SMILES: C=CC(=O)Nc1ccc(C(=O)Nc2[nH]nc3c2CN(C(=O)N[C@H](CN(C)C)c2ccccc2)C3(C)C)cc1
% of engagement [7]: 14.1%

SMILES: N#Cc1cccc(-c2c[nH]c3ncnc(N4CCOCC4)c23)c1
% of inhibition [8]: 31%
